Measured values taken from PMC13210772, “Dual FLT3/MAPK14 Proteolysis-Targeting Chimera (PROTAC) Induces Potent Acute Myeloid Leukemia Cell Death” (Pharmaceuticals, 2026).

Columns and labels:
Experiment in all cases: NanoBRET CELLinib128
Assay type in all cases: binding
[1] = target: T1, MAP4K5 (Homo sapiens, UniProt Q9Y4K4); conditions: 100% no effect, 0% complete tracer displacement, read-out: Tracer bound
T1 construct: Full-length kinase ORF (Promega, Madison, WI, USA) cloned in frame with a NanoLuc-vector was transfected into HEK293T cells; host or cells: HEK293T
Protocol: (§1) To get an impression about the binding strength of the PROTAC MA191 and the reference inhibitor MA68 to other kinases besides FLT3-ITD the binding on a kinase panel of further 128 representative protein kinases at 1 μM concentration was tested using the NanoBRET^TM cellular target engagement assay (CELLinib128 assay, CELLinib GmbH, Frankfurt, Germany). […] In none of the 128 kinases MA191 was able to displace the tracer (inhibitor) used by more than 50%, Table S1, Supplementary Information).
(§2) The CELLinib128 assay was performed by CELLinib GmbH, Frankfurt (Germany) as described previously. In brief: Full-length kinase ORF (Promega, Madison, WI, USA) cloned in frame with a NanoLuc-vector was transfected into HEK293T cells in Opti-MEM without phenol red (Life Technologies, Carlsbad, CA, USA) at a density of 2 × 10^5 cells/mL using FuGENE HD (Promega, E2312) and proteins were allowed to express for 20 h. For CDKs, where indicated below, an excess of an activator without an NLuc-fusion was cotransfected. […] The system was allowed to equilibrate at 37 °C for 2 h and 5% CO2 prior to BRET measurements. For PKCs, a chemical activator PMA was added in a final concentration of 1 µM was added together with test compounds and tracers (Promega, V1171). To measure BRET, NanoBRET^TM NanoGlo substrate + extracellular NanoLuc inhibitor (Promega, N2160) were added as per the manufacturer’s protocol, and filtered luminescence was measured (450 nm BP filter (donor) and 610 nm LP filter (acceptor)). For the 1-shot test compounds, data were normalized to the tracer control and the background control or control compound plateau and an average and SD were calculated. […] For the control compounds competitive displacement data were normalized to the tracer Ctrl and the background Ctrl and then plotted and fitted using GraphPad Prism 10 software using a normalized 3-parameter curve fit with the following equation: Y = 100/(1 + 10^X−LogIC50).

[2] = target: T2, NEK9 (Homo sapiens, UniProt Q8TD19); conditions: 100% no effect, 0% complete tracer displacement, read-out: Tracer bound
T2 construct: Full-length kinase ORF (Promega, Madison, WI, USA) cloned in frame with a NanoLuc-vector was transfected into HEK293T cells; host or cells: HEK293T
Protocol: as §1, §2

[3] = target: T3, PRKACB (Homo sapiens, UniProt P22694); conditions: 100% no effect, 0% complete tracer displacement, read-out: Tracer bound
T3 construct: Full-length kinase ORF (Promega, Madison, WI, USA) cloned in frame with a NanoLuc-vector was transfected into HEK293T cells; host or cells: HEK293T
Protocol: as §1, §2

[4] = target: T4, TRKA (Homo sapiens, UniProt P04629); conditions: 100% no effect, 0% complete tracer displacement, read-out: Tracer bound
T4 construct: Full-length kinase ORF (Promega, Madison, WI, USA) cloned in frame with a NanoLuc-vector; host or cells: HEK293T
Protocol: as §1, §2

[5] = target: T5, STK36 (Homo sapiens, UniProt Q9NRP7); conditions: 100% no effect, 0% complete tracer displacement, read-out: Tracer bound
T5 construct: Full-length kinase ORF (Promega, Madison, WI, USA) cloned in frame with a NanoLuc-vector was transfected into HEK293T cells; host or cells: HEK293T
Protocol: as §1, §2

[6] = target: T6, JAK3 (Homo sapiens, UniProt P52333); conditions: 100% no effect, 0% complete tracer displacement, read-out: Tracer bound
T6 construct: Full-length kinase ORF (Promega, Madison, WI, USA) cloned in frame with a NanoLuc-vector was transfected into HEK293T cells; host or cells: HEK293T
Protocol: as §1, §2

[7] = target: T7, PTK2 (Homo sapiens, UniProt Q05397); conditions: 100% no effect, 0% complete tracer displacement, read-out: Tracer bound
T7 construct: Full-length kinase ORF (Promega, Madison, WI, USA) cloned in frame with a NanoLuc-vector was transfected into HEK293T cells; host or cells: HEK293T
Protocol: as §1, §2

[8] = target: T8, RET (Homo sapiens, UniProt P07949); conditions: 100% no effect, 0% complete tracer displacement, read-out: Tracer bound
T8 construct: Full-length kinase ORF (Promega, Madison, WI, USA) cloned in frame with a NanoLuc-vector was transfected into HEK293T cells; host or cells: HEK293T
Protocol: as §1, §2

[9] = target: T9, NUAK1 (Homo sapiens, UniProt O60285); conditions: 1 µM; 100% no effect, 0% complete tracer displacement
T9 construct: Full-length kinase ORF (Promega, Madison, WI, USA) cloned in frame with a NanoLuc-vector was transfected into HEK293T cells; host or cells: HEK293T
T9 sequence (O60285 whole entry): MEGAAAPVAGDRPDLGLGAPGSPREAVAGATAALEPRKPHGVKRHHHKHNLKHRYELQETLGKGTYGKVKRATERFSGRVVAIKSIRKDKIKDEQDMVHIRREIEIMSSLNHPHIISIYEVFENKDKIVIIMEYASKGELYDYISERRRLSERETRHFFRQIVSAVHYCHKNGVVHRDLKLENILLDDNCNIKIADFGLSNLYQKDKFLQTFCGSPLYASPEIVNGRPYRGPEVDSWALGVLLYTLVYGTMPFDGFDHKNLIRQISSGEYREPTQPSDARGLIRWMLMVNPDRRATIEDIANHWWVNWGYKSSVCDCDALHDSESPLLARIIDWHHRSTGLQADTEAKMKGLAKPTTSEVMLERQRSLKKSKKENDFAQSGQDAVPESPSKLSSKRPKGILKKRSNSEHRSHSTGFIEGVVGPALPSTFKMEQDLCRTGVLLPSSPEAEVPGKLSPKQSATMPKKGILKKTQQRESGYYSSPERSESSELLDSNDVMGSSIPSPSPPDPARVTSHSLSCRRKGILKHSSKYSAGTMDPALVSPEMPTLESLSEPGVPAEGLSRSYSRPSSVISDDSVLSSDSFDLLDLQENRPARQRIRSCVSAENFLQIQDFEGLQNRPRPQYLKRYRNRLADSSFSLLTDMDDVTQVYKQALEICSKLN
Protocol: as §1, §2

[10] = target: T10, MYLK3 (Homo sapiens, UniProt Q32MK0); conditions: 100% no effect, 0% complete tracer displacement, read-out: Tracer bound
T10 construct: Full-length kinase ORF (Promega, Madison, WI, USA) cloned in frame with a NanoLuc-vector was transfected into HEK293T cells; host or cells: HEK293T
Protocol: as §1, §2

[11] = target: T11, SRMS (Homo sapiens, UniProt Q9H3Y6); conditions: 100% no effect, 0% complete tracer displacement, read-out: Tracer bound
T11 construct: Full-length kinase ORF (Promega, Madison, WI, USA) cloned in frame with a NanoLuc-vector was transfected into HEK293T cells; host or cells: HEK293T
Protocol: as §1, §2

[12] = target: T12, STK35 (Homo sapiens, UniProt Q8TDR2); conditions: 100% no effect, 0% complete tracer displacement, read-out: Tracer bound
T12 construct: Full-length kinase ORF (Promega, Madison, WI, USA) cloned in frame with a NanoLuc-vector was transfected into HEK293T cells; host or cells: HEK293T
Protocol: as §1, §2

[13] = target: T13, FGFR2 (Homo sapiens, UniProt P21802); conditions: 100% no effect, 0% complete tracer displacement, read-out: Tracer bound
T13 construct: Full-length kinase ORF (Promega, Madison, WI, USA) cloned in frame with a NanoLuc-vector was transfected into HEK293T cells; host or cells: HEK293T
Protocol: as §1, §2

[14] = target: T14, PLK4 (Homo sapiens, UniProt O00444); conditions: 100% no effect, 0% complete tracer displacement, read-out: Tracer bound
T14 construct: Full-length kinase ORF (Promega, Madison, WI, USA) cloned in frame with a NanoLuc-vector was transfected into HEK293T cells; host or cells: HEK293T
Protocol: as §1, §2

[15] = target: T15, CDK4-CCND3 (Homo sapiens, UniProt P11802); conditions: 100% no effect, 0% complete tracer displacement, read-out: Tracer bound
T15 construct: Full-length kinase ORF (Promega, Madison, WI, USA) cloned in frame with a NanoLuc-vector was transfected into HEK293T cells; host or cells: HEK293T
Protocol: as §1, §2

[16] = target: T16, STK33 (Homo sapiens, UniProt Q9BYT3); conditions: 100% no effect, 0% complete tracer displacement, read-out: Tracer bound
T16 construct: Full-length kinase ORF (Promega, Madison, WI, USA) cloned in frame with a NanoLuc-vector was transfected into HEK293T cells; host or cells: HEK293T
T16 sequence (Q9BYT3 whole entry): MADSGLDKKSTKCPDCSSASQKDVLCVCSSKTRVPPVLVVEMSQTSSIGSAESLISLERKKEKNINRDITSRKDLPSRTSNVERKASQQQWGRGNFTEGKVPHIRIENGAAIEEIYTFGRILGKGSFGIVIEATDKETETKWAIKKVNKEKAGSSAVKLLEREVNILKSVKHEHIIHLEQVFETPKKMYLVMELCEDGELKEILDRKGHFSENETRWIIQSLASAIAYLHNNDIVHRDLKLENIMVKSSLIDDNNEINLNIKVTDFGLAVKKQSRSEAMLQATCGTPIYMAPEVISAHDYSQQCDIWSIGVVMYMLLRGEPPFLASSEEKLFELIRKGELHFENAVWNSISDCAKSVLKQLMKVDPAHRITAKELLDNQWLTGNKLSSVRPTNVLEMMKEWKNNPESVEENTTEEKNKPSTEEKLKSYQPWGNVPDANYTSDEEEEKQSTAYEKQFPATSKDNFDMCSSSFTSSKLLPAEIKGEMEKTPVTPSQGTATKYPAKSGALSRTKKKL
Protocol: as §1, §2

[17] = target: T17, CSNK2A2 (Homo sapiens, UniProt P19784); conditions: 100% no effect, 0% complete tracer displacement, read-out: Tracer bound
T17 construct: Full-length kinase ORF (Promega, Madison, WI, USA) cloned in frame with a NanoLuc-vector was transfected into HEK293T cells; host or cells: HEK293T
T17 sequence (P19784 whole entry): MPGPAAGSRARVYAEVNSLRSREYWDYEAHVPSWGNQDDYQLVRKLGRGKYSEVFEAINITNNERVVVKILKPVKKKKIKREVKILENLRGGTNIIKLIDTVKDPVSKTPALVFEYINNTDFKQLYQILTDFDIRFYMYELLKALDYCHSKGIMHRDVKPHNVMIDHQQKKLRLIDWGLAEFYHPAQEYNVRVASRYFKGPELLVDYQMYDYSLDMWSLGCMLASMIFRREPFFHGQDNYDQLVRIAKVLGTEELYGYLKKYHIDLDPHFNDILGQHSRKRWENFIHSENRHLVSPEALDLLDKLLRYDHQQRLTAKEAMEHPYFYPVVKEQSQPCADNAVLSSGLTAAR
Protocol: as §1, §2

[18] = target: T18, RPS6KA2 (Homo sapiens, UniProt Q15349); conditions: 100% no effect, 0% complete tracer displacement, read-out: Tracer bound
T18 construct: Full-length kinase ORF (Promega, Madison, WI, USA) cloned in frame with a NanoLuc-vector was transfected into HEK293T cells; host or cells: HEK293T
Protocol: as §1, §2

[19] = target: T19, MAP4K3 (Homo sapiens, UniProt Q8IVH8); conditions: 1 µM; 100% no effect, 0% complete tracer displacement
T19 construct: Full-length kinase ORF (Promega, Madison, WI, USA) cloned in frame with a NanoLuc-vector was transfected into HEK293T cells; host or cells: HEK293T
Protocol: as §1, §2

[20] = target: T20, CDK20-CCNH (Homo sapiens, UniProt Q8IZL9); conditions: 100% no effect, 0% complete tracer displacement, read-out: Tracer bound
T20 construct: Full-length kinase ORF (Promega, Madison, WI, USA) cloned in frame with a NanoLuc-vector was transfected into HEK293T cells; host or cells: HEK293T
T20 sequence (Q8IZL9 whole entry): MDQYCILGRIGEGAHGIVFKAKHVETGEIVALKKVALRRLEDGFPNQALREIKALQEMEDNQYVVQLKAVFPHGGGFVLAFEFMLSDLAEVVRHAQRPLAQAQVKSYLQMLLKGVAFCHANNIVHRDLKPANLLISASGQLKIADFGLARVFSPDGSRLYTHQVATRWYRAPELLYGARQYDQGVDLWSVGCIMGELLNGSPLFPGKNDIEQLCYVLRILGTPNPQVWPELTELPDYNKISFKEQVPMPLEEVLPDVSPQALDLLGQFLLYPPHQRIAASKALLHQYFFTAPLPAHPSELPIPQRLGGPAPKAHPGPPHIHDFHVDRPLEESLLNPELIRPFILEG
T20 sequence (P51946 whole entry partner): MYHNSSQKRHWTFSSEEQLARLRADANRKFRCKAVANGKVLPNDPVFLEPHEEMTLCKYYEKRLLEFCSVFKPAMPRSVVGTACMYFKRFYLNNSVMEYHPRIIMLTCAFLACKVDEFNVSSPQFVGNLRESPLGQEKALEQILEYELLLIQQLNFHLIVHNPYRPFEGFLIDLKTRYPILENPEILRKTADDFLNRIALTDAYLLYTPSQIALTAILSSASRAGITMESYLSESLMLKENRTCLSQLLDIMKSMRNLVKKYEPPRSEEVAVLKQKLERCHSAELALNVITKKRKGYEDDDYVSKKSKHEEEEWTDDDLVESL
Protocol: as §1, §2

[21] = target: T21, CAMK2A (Homo sapiens, UniProt Q9UQM7); conditions: 100% no effect, 0% complete tracer displacement, read-out: Tracer bound
T21 construct: Full-length kinase ORF (Promega, Madison, WI, USA) cloned in frame with a NanoLuc-vector was transfected into HEK293T cells; host or cells: HEK293T
T21 sequence (Q9UQM7 whole entry): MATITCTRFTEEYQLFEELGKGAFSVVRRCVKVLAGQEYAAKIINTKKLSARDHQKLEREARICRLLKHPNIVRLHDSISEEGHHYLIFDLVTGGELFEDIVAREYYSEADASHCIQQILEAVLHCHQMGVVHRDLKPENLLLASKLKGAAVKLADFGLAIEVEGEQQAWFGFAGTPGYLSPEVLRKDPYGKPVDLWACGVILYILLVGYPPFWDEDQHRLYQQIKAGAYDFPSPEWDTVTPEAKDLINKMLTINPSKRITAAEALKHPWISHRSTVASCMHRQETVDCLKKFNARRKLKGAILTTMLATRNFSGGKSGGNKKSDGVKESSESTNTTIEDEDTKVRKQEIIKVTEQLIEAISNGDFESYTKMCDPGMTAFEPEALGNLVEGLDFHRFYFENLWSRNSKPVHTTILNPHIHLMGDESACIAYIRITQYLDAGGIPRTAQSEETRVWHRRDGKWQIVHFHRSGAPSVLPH
Protocol: as §1, §2

[22] = target: T22, HUNK (Homo sapiens, UniProt P57058); conditions: 100% no effect, 0% complete tracer displacement, read-out: Tracer bound
T22 construct: Full-length kinase ORF (Promega, Madison, WI, USA) cloned in frame with a NanoLuc-vector was transfected into HEK293T cells; host or cells: HEK293T
T22 sequence (P57058 whole entry): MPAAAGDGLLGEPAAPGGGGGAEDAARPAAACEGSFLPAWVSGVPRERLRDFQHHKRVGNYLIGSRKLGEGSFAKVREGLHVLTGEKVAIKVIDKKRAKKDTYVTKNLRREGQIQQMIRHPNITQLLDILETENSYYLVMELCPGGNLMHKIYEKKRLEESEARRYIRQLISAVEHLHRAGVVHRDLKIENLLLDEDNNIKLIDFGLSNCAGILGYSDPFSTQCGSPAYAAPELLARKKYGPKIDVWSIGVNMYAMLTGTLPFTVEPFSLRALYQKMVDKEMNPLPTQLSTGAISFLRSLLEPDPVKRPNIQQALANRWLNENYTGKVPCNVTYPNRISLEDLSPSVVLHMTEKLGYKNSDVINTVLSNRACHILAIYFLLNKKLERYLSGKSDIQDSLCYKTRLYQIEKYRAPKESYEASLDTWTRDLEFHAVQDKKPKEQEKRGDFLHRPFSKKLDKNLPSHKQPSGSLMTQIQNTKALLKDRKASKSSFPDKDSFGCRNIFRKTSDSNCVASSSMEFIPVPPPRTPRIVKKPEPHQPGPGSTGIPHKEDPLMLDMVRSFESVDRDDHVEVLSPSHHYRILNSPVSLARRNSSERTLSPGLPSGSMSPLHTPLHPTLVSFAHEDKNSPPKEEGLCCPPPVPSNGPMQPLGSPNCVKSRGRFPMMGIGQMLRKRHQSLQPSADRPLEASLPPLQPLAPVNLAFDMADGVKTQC
Protocol: as §1, §2

[23] = target: T23, TBK1 (Homo sapiens, UniProt Q9UHD2); conditions: 100% no effect, 0% complete tracer displacement, read-out: Tracer bound
T23 construct: Full-length kinase ORF (Promega, Madison, WI, USA) cloned in frame with a NanoLuc-vector was transfected into HEK293T cells; host or cells: HEK293T
Protocol: as §1, §2

[24] = target: T24, TNNI3K (Homo sapiens, UniProt Q59H18); conditions: 100% no effect, 0% complete tracer displacement, read-out: Tracer bound
T24 construct: Full-length kinase ORF (Promega, Madison, WI, USA) cloned in frame with a NanoLuc-vector; host or cells: HEK293T
Protocol: as §1, §2

[25] = target: T25, CDK2-CCNE1 (Homo sapiens, UniProt P24941); conditions: 1 µM; 100% no effect, 0% complete tracer displacement
T25 construct: Full-length kinase ORF (Promega, Madison, WI, USA) cloned in frame with a NanoLuc-vector was transfected into HEK293T cells; host or cells: HEK293T
Protocol: as §1, §2

[26] = target: T26, MAPK9 (Homo sapiens, UniProt P45984); conditions: 1 µM; 100% no effect, 0% complete tracer displacement
T26 construct: Full-length kinase ORF (Promega, Madison, WI, USA) cloned in frame with a NanoLuc-vector was transfected into HEK293T cells; host or cells: HEK293T
T26 sequence (P45984 whole entry): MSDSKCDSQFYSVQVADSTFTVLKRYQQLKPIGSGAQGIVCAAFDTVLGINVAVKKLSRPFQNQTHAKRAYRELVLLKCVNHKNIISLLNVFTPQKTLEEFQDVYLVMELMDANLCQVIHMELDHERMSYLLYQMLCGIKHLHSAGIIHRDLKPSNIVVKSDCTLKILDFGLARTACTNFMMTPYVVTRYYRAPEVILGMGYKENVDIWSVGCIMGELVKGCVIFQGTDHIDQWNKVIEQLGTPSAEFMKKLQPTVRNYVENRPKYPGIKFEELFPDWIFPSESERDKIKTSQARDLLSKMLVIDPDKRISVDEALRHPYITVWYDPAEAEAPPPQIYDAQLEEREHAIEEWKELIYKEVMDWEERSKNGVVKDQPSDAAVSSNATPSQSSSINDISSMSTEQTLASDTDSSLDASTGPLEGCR
Protocol: as §1, §2

[27] = target: T27, NEK3 (Homo sapiens, UniProt P51956); conditions: 100% no effect, 0% complete tracer displacement, read-out: Tracer bound
T27 construct: Full-length kinase ORF (Promega, Madison, WI, USA) cloned in frame with a NanoLuc-vector was transfected into HEK293T cells; host or cells: HEK293T
Protocol: as §1, §2

[28] = target: T28, MAPK6 (Homo sapiens, UniProt Q16659); conditions: 100% no effect, 0% complete tracer displacement, read-out: Tracer bound
T28 construct: Full-length kinase ORF (Promega, Madison, WI, USA) cloned in frame with a NanoLuc-vector was transfected into HEK293T cells; host or cells: HEK293T
Protocol: as §1, §2

[29] = target: T29, SIK1 (Homo sapiens, UniProt P57059); conditions: 1 µM; 100% no effect, 0% complete tracer displacement
T29 construct: Full-length kinase ORF (Promega, Madison, WI, USA) cloned in frame with a NanoLuc-vector was transfected into HEK293T cells; host or cells: HEK293T
T29 sequence (P57059 whole entry): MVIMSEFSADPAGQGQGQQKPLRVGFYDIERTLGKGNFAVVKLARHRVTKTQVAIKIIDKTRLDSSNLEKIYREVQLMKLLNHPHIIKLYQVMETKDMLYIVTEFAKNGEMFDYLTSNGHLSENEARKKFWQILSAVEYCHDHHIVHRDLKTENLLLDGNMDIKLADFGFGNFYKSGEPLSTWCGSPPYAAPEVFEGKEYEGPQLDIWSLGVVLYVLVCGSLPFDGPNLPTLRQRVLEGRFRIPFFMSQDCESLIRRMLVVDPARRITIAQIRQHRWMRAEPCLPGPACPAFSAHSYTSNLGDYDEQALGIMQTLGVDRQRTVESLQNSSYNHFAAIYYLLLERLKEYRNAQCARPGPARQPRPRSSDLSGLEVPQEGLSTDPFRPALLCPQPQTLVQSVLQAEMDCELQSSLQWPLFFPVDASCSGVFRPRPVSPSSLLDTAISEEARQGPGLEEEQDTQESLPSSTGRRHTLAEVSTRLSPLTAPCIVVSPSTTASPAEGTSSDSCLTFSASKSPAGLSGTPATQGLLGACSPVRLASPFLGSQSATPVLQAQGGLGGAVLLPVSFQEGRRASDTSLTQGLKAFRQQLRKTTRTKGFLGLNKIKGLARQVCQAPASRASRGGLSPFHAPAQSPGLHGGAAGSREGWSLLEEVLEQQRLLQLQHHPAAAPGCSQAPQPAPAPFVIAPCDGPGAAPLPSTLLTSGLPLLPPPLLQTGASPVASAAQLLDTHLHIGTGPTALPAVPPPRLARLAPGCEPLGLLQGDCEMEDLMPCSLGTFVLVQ
Protocol: as §1, §2

[30] = target: T30, LIMK2 (Homo sapiens, UniProt P53671); conditions: 100% no effect, 0% complete tracer displacement, read-out: Tracer bound
T30 construct: Full-length kinase ORF (Promega, Madison, WI, USA) cloned in frame with a NanoLuc-vector was transfected into HEK293T cells; host or cells: HEK293T
Protocol: as §1, §2

remaining activity at 1 µM [1]: 94% | remaining activity at 1 µM [3]: 106% | remaining activity at 1 µM [4]: 103% | remaining activity at 1 µM [5]: 119% | remaining activity at 1 µM [6]: 117% | remaining activity at 1 µM [7]: 113% | remaining activity at 1 µM [8]: 83.5% | Tracer bound [9]: 120.0% | remaining activity at 1 µM [10]: 108% | remaining activity at 1 µM [11]: 94.4% | remaining activity at 1 µM [12]: 95.8% | remaining activity at 1 µM [13]: 109% | remaining activity at 1 µM [14]: 112% | remaining activity at 1 µM [15]: 105% | remaining activity at 1 µM [16]: 99% | remaining activity at 1 µM [17]: 114% | remaining activity at 1 µM [18]: 114% | Tracer bound [19]: 91.1% | remaining activity at 1 µM [20]: 108% | remaining activity at 1 µM [21]: 102% | remaining activity at 1 µM [22]: 103% | remaining activity at 1 µM [23]: 108% | remaining activity at 1 µM [24]: 83.2% | Tracer bound [25]: 102.5% | Tracer bound [26]: 101.6% | remaining activity at 1 µM [27]: 100% | remaining activity at 1 µM [28]: 120% | Tracer bound [29]: 115.0% | remaining activity at 1 µM [30]: 105%
SMILES: Cc1ncsc1-c1ccc([C@H](C)NC(=O)[C@@H]2C[C@@H](O)CN2C(=O)[C@@H](NC(=O)[C@H]2CC[C@H](C(=O)N3CCN(CCNC(=O)c4cc(Oc5ccc(NC(=O)Nc6cc(C(C)(C)C)on6)cc5)ccn4)CC3)CC2)C(C)(C)C)cc1 [MA191, 4-(4-(3-(5-(tert-Butyl)isoxazol-3-yl)ureido)phenoxy)-N-(2-(4-(trans-4-(((S)-1-((2S,4R)-4-hydroxy-2-(((S)-1-(4-(4-methylthiazol-5-yl)phenyl)ethyl)carbamoyl)pyrrolidin-1-yl)-3,3-dimethyl-1-oxobutan-2-yl)carbamoyl)cyclohexanecarbonyl)piperazin-1-yl)ethyl)picolinamide]
remaining activity at 1 µM [2]: 109%
